Assay results as given in article PMC10046961, “High-Throughput Screening Assay for Detecting Drug-Induced Changes in Synchronized Neuronal Oscillations and Potential Seizure Risk Based on Ca^2+ Fluorescence Measurements in Human Induced Pluripotent Stem Cell (hiPSC)-Derived Neuronal 2D and 3D Cultures” (Cells, 2023).
Read-outs that look alike come from different tables or passages of the source. Marks after values point to notes of the source that are not given here.

Experiments:
[1] = system: hiPSC-derived neurons co-cultured with human primary astrocytes in 2D; assay: Ca2+ transient oscillation assay (FDSS), 2D co-culture; type: cell-based; settings: for effect on peak number / Ca2+ neuronal oscillations, in words: 2D format; for activation at 0.04 µM / activation at 0.11 µM / activation at 0.33 µM / activation at 1 µM / activation at 3.7 µM / activation at 11.11 µM / activation at 33.33 µM / activation at 100 µM: Homo sapiens, 1 h, 60 min
Procedure, shortened: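 hiPSC-derived excitatory neurons (CW50065, Quick-Neuron EX-SeV) co-cultured with human primary astrocytes at 4:1 (10,000:2500 cells per well). Cal-520-loaded cells in HBSS with 2 mM CaCl2 and 10 mM HEPES were pretreated with 0.04% DMSO.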

[2] = system: hiPSC-derived neurons co-cultured with human primary astrocytes in 3D; assay: Ca2+ transient oscillation assay (FDSS), 3D spheroids; type: cell-based; settings: 60 min
Procedure, shortened: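 Fura-2 fluorescence was read twice for 20 min each: a baseline 10 min after 0.04% DMSO, and again 60 min after compound addition at nominal final concentration. The 3D co-cultures (1:1 hiPSC neurons from a donor and human astrocytes, 8000 each) matured 5 weeks in BrainPhys medium after a 1-week differentiation.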

[3] = ref PharmaPendium, cited from earlier work
[4] = read-out: Area under the curve - 2D Mean
[5] = read-out: Peak amplitude - 2D Mean
[6] = read-out: Peak-to-peak interval - 2D Mean
[7] = Table 1, peak plasma concentration in men, free therapeutic Cmax
[8] = Table 2, highest plasma concentration in humans after the therapeutic dose

CN1CCN(C2=Nc3cc(Cl)ccc3Nc3ccccc32)CC1 [Clozapine]
effect on peak number / Ca2+ neuronal oscillations, in words [1]: significantly increased peak number
activation at 0.04 µM [1, 4]: 28.5%
activation at 0.04 µM ([1]; read-out: Peak Number—2D Mean): 15.3%
activation at 0.04 µM [1, 5]: 12.5%
activation at 0.04 µM ([1]; read-out: Peak width - 2D Mean): 20.8%
activation at 0.04 µM [1, 6]: 1.2%
activation at 0.11 µM [1, 4]: 49%
activation at 0.11 µM ([1]; read-out: Peak Number—2D Mean): 24.2%
activation at 0.11 µM [1, 5]: 16.7%
activation at 0.11 µM ([1]; read-out: Peak width - 2D Mean): 35.5%
activation at 0.11 µM [1, 6]: -15.5%
activation at 0.33 µM [1, 4]: 28.8%
activation at 0.33 µM ([1]; read-out: Peak Number—2D Mean): -15%
activation at 0.33 µM [1, 5]: 9.4%
activation at 0.33 µM ([1]; read-out: Peak width - 2D Mean): 22.8%
activation at 0.33 µM [1, 6]: 82%
activation at 1 µM [1, 4]: 10.8%
activation at 1 µM ([1]; read-out: Peak Number—2D Mean): -8.3%
activation at 1 µM [1, 5]: 1%
activation at 1 µM ([1]; read-out: Peak width - 2D Mean): 11%
activation at 1 µM [1, 6]: 2.7%
Area under the curve - 3D Mean ([2]; 0.04 µM): 150.1 % change from baseline
Peak Number—3D Mean ([2]; 0.04 µM): 11.1 % change from baseline
Peak amplitude - 3D Mean ([2]; 0.04 µM): 133.6 % change from baseline
Peak width - 3D Mean ([2]; 0.04 µM): 6.2 % change from baseline
Peak-to-peak interval - 3D Mean ([2]; 0.04 µM): 4.5 % change from baseline
Area under the curve - 3D Mean ([2]; 0.11 µM): 153.9 % change from baseline
Peak Number—3D Mean ([2]; 0.11 µM): −10.0 % change from baseline
Peak amplitude - 3D Mean ([2]; 0.11 µM): 130.9 % change from baseline
Peak width - 3D Mean ([2]; 0.11 µM): 8.6 % change from baseline
Peak-to-peak interval - 3D Mean ([2]; 0.11 µM): 19.2 % change from baseline
Area under the curve - 3D Mean ([2]; 0.33 µM): 163.3 % change from baseline
Peak Number—3D Mean ([2]; 0.33 µM): −2.8 % change from baseline
Peak amplitude - 3D Mean ([2]; 0.33 µM): 129.8 % change from baseline
Peak width - 3D Mean ([2]; 0.33 µM): 14.0 % change from baseline
Peak-to-peak interval - 3D Mean ([2]; 0.33 µM): 5.6 % change from baseline
Area under the curve - 3D Mean ([2]; 1 µM): 182.8 % change from baseline
Peak Number—3D Mean ([2]; 1 µM): −13.9 % change from baseline
Peak amplitude - 3D Mean ([2]; 1 µM): 129.4 % change from baseline
Peak width - 3D Mean ([2]; 1 µM): 22.6 % change from baseline
Peak-to-peak interval - 3D Mean ([2]; 1 µM): 14.2 % change from baseline
Free Cmax [3, 7]: 0.3 µM
Free Cmax [3, 8]: 0.3 µM

NS(=O)(=O)c1cc2c(cc1Cl)NC(C1CC3C=CC1C3)NS2(=O)=O (centres unmarked) [Cyclothiazide]
effect on peak number / Ca2+ neuronal oscillations, in words [1]: significantly increased peak number
activation at 3.7 µM [1, 4]: 48%
activation at 3.7 µM ([1]; read-out: Peak Number—2D Mean): 2.7%
activation at 3.7 µM [1, 5]: 12.3%
activation at 3.7 µM ([1]; read-out: Peak width - 2D Mean): 50.8%
activation at 3.7 µM [1, 6]: 9.2%
activation at 11.11 µM [1, 4]: 18.7%
activation at 11.11 µM ([1]; read-out: Peak Number—2D Mean): 178%
activation at 11.11 µM [1, 5]: -0.5%
activation at 11.11 µM ([1]; read-out: Peak width - 2D Mean): 24.5%
activation at 11.11 µM [1, 6]: -53.3%
activation at 33.33 µM [1, 4]: -9.3%
activation at 33.33 µM ([1]; read-out: Peak Number—2D Mean): -25.2%
activation at 33.33 µM [1, 5]: -24%
activation at 33.33 µM ([1]; read-out: Peak width - 2D Mean): 208%
activation at 33.33 µM [1, 6]: 0.3%
activation at 100 µM [1, 4]: -53.8%
activation at 100 µM ([1]; read-out: Peak Number—2D Mean): -82%
activation at 100 µM [1, 5]: -72.8%
activation at 100 µM ([1]; read-out: Peak width - 2D Mean): -17.3%
activation at 100 µM [1, 6]: -70.3%
Area under the curve - 3D Mean ([2]; 3.7 µM): 135.8 % change from baseline
Peak Number—3D Mean ([2]; 3.7 µM): 0.0 % change from baseline
Peak amplitude - 3D Mean ([2]; 3.7 µM): 126.0 % change from baseline
Peak width - 3D Mean ([2]; 3.7 µM): 0.7 % change from baseline
Peak-to-peak interval - 3D Mean ([2]; 3.7 µM): 6.7 % change from baseline
Area under the curve - 3D Mean ([2]; 11.11 µM): 187.3 % change from baseline
Peak Number—3D Mean ([2]; 11.11 µM): 21.5 % change from baseline
Peak amplitude - 3D Mean ([2]; 11.11 µM): 139.0 % change from baseline
Peak width - 3D Mean ([2]; 11.11 µM): 23.6 % change from baseline
Peak-to-peak interval - 3D Mean ([2]; 11.11 µM): −14.5 % change from baseline
Area under the curve - 3D Mean ([2]; 33.33 µM): 245.1 % change from baseline
Peak Number—3D Mean ([2]; 33.33 µM): 63.6 * % change from baseline
Peak amplitude - 3D Mean ([2]; 33.33 µM): 113.7 % change from baseline
Peak width - 3D Mean ([2]; 33.33 µM): 64.7 % change from baseline
Peak-to-peak interval - 3D Mean ([2]; 33.33 µM): −30.0 % change from baseline
Area under the curve - 3D Mean ([2]; 100 µM): 204.6 % change from baseline
Peak Number—3D Mean ([2]; 100 µM): 102.9 ** % change from baseline
Peak amplitude - 3D Mean ([2]; 100 µM): 83.6 % change from baseline
Peak width - 3D Mean ([2]; 100 µM): 80.0 % change from baseline
Peak-to-peak interval - 3D Mean ([2]; 100 µM): −49.3 % change from baseline
Free Cmax [3, 7]: 30 µM
Free Cmax [3, 8]: 30 µM
